Experimental data taken from US20240067660A1, “MACROCYCLIC SPIROCYCLE DERIVATIVES AS MCL-1 INHIBITORS” (Janssen Pharmaceutica NV, priority 2019, published 2024).
Where two headings read alike, the source gives them in different places.

Key:
[1] = tested on: MOLP-8 human multiple myeloma cell line; experiment: Caspase-Glo 3/7 assay in MOLP-8 cells; format: cell-based; conditions: Caspase-Glo 3/7, 2 hours incubation, averaged over all runs on all batches, read-out: MOLP8 AC50
From the text: MCL-1 is a regulator of apoptosis and is highly over-expressed in tumor cells that escape cell death. The assay evaluates the cellular potency of small-molecule compounds targeting regulators of the apoptosis pathway, primarily MCL-1, Bfl-1, Bcl-2, and other proteins of the Bcl-2 family. Protein-protein inhibitors disrupting the interaction of anti-apoptotic regulators with BH3-domain proteins initiate apoptosis.
The Caspase-Glo® 3/7 Assay is a luminescent assay that measures caspase-3 and -7 activities in purified enzyme preparations or cultures of adherent or suspension cells. The assay provides a proluminescent caspase-3/7 substrate, which contains the tetrapeptide sequence DEVD. This substrate is cleaved to release aminoluciferin, a substrate of luciferase used in the production of light. Addition of the single Caspase-Glo® 3/7 Reagent in an “add-mix-measure” format results in cell lysis, followed by caspase cleavage of the substrate and generation of a “glow-type” luminescent signal.
This assay uses the MOLP-8 human multiple myeloma cell line, which is sensitive to MCL-1 inhibition.
Cell cultures were maintained between 0.2 and 2.0×10^6 cells/mL. The cells were harvested by collection in 50 mL conical tubes. The cells were then pelleted at 500 g for 5 mins before removing supernatant and resuspension in fresh pre-warmed culture medium. The cells were counted and diluted as needed.
The assay reagent was prepared by transferring the buffer solution to the substrate vial and mixing. The solution may be stored for up to 1 week at 4° C. with negligible loss of signal.
Compounds were delivered in assay-ready plates (Proxiplate) and stored at −20° C. Assays always include 1 reference compound plate containing reference compounds. The plates were spotted with 40 nL of compounds (0.5% DMSO final in cells; serial dilution; 30 μM highest conc. 1/3 dilution, 10 doses, duplicates). The compounds were used at room temperature and 4 μL of pre-warmed media was added to all wells except column 2 and 23. The negative control was prepared by adding 1% DMSO in media. The positive control was prepared by adding the appropriate positive control compound in final concentration of 60 μM in media. The plate was prepared by adding 4 μL negative control to column 23, 4 μL positive control to column 2 and 4 μL cell suspension to all wells in the plate. The plate with cells was then incubated at 37° C. for 2 hours. The assay signal reagent is the Caspase-Glo solution described above, and 8 μL was added to all wells. The plates were then sealed and measured after 30 minutes.
The activity of a test compound was calculated as percent change in apoptosis induction as follows: […]

[2] = biological target: Myeloid Cell Leukemia 1(Mcl-1) (Homo sapiens (Human), UniProt Q07820); experiment: Terbium labeled Mcl-1 HTRF binding assay with Cy5-labeled BIM BH3 peptide
Myeloid Cell Leukemia 1(Mcl-1), sequence (Q07820 whole entry): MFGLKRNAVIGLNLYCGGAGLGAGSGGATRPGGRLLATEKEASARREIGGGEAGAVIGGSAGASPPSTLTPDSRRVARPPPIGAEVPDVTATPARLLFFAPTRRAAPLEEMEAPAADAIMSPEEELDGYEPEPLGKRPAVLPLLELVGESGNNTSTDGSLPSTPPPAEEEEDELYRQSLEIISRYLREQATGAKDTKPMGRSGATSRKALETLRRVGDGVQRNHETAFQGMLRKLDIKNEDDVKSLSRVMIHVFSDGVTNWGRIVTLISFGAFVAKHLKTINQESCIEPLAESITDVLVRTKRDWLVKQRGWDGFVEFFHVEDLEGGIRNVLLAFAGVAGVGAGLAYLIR
Method: Terbium labeled Myeloid Cell Leukemia 1(Mcl-1) homogeneous time-resolved fluorescence (HTRF) binding assay utilizing the BIM BH3 peptide (H2N-(C/Cy5Mal) WIAQELRRIGDEFN-OH) as the binding partner for Mcl-1.
This assay evaluated inhibition of the BH3 domain: Mcl-1 interaction by measuring the displacement of Cy5-labeled BIM BH3 peptide (H2N—(C/Cy5Mal) WIAQELRRIGDEFN-OH) in the HTRF assay format.
The following assay and stock buffers were prepared for use in the assay: (a) Stock buffer: 10 mM Tris-HCl, pH=7.5+150 mM NaCl, filtered, sterilized, and stored at 4° C.; and (b) 1× assay buffer, where the following ingredients were added fresh to stock buffer: 2 mM dithiothreitol (DTT), 0.0025% Tween-20, 0.1 mg/mL bovine serum albumin (BSA). The 1×Tb-Mcl-1+Cy5 Bim peptide solution was prepared by diluting the protein stock solution using the 1× assay buffer (b) to 25 pM Tb-Mcl-1 and 8 nM Cy5 Bim peptide.
Using the Acoustic ECHO, 100 nL of 100× test compound(s) were dispensed into individual wells of a white 384-well Perkin Elmer Proxiplate, for a final compound concentration of lx and final DMSO concentration of 1%. Inhibitor control and neutral control (NC, 100 nL of 100% DMSO) were stamped into columns 23 and 24 of assay plate. Into each well of the plate was then dispensed 10 μL of the 1×Tb-Mcl-1+Cy5 Bim peptide solution. The plate was centrifuged with a cover plate at 1000 rpm for 1 minute, then incubated for 60 minutes at room temperature with plates covered.
The TR-FRET signal was read on an BMG PHERAStar FSX MicroPlate Reader at room temperature using the HTRF optic module (HTRF: excitation: 337 nm, light source: laser, emission A: 665 nm, emission B: 620 nm, integration start: 60 μs, integration time: […]).
The BMG PHERAStar FSX MicroPlate Reader was used to measure fluorescence intensity at two emission wavelengths—665 nm and 620 nm—and report relative fluorescence units (RFU) for both emissions, as well as a ratio of the emissions (665 nm/620 nm)*10,000. The RFU values were normalized to percent inhibition as follows:
% inhibition=((NC−IC)−(compound−IC))/(NC−IC))*100
where IC (inhibitor control, low signal)=mean signal of 1×Tb-MCl-1+Cy5 Bim peptide+inhibitor control or 100% inhibition of Mcl-1; NC (neutral control, high signal)=mean signal 1×Tb-MCl-1+Cy5 Bim peptide with DMSO only or 0% inhibition An 11-point dose response curve was generated to determine IC50 values (using GenData) based on the following equation:
Y=Bottom+(Top−Bottom)/(1+10^((IogIC50−X)*HillSlope))
where Y=% inhibition in the presence of X inhibitor concentration; Top=100% inhibition derived from the IC (mean signal of Mcl-1+inhibitor control); Bottom=0% inhibition derived from the NC (mean signal of Mcl-1+DMSO); Hillslope=Hill coefficient; and IC50=concentration of compound with 50% inhibition in relation to top/neutral control (NC).
In this assay [L]=8 nM and Kd=10 nM

[3] = first table, [L]=8 nM, Kd=10 nM, before recalibration of the equipment
[4] = obtained after recalibration of the equipment, averaged values over several runs

Compound	AC50 ([1]; Homo sapiens, MOLP-8, 2 h)	Ki [2, 3]	Ki [2, 4]	AC50 [1]
COCCCOC[C@H]1/C(F)=C/C[C@H](C)[C@@H](C)S(=O)(=O)NC(=O)c2ccc3c(c2)N(C[C@@H]2CCN21)C[C@@]1(CCCc2cc(Cl)ccc21)CO3 [Compound 22]	274 nM	1.29 nM	0.69 nM	
COC[C@H]1/C=C/C[C@@H](C)[C@@H](C)S(=O)(=O)NC(=O)c2ccc3c(c2)N(C[C@@H]2CCN21)C[C@@]1(CCCc2cc(Cl)ccc21)CO3 [Compound 4]	740 nM	1.98 nM	3.15 nM	
CCOC[C@H]1/C(F)=C/C[C@H](C)[C@@H](C)S(=O)(=O)NC(=O)c2ccc3c(c2)N(C[C@@H]2CCN21)C[C@@]1(CCCc2cc(Cl)ccc21)CO3 [Compound 16]	207 nM	0.83 nM		
COC[C@@H]1/C=C/C[C@@H](C)[C@@H](C)S(=O)(=O)NC(=O)c2ccc3c(c2)N(C[C@@H]2CCN21)C[C@@]1(CCCc2cc(Cl)ccc21)CO3 [Compound 7]	852 nM	0.83 nM	0.61 nM	
C[C@@H]1[C@@H](C)C/C=C(\F)[C@H](COc2ccccn2)N2CC[C@@H]2CN2C[C@@]3(CCCc4cc(Cl)ccc43)COc3ccc(cc32)C(=O)NS1(=O)=O [Compound 12]			2.15 nM	520 nM
C[C@@H]1[C@@H](C)C/C=C(\F)[C@H](CF)N2CC[C@H]2CN2C[C@@]3(CCCc4cc(Cl)ccc43)COc3ccc(cc32)C(=O)NS1(=O)=O [Compound 31]	512 nM		0.86 nM	
Cc1nc(COC[C@H]2/C(F)=C/C[C@H](C)[C@@H](C)S(=O)(=O)NC(=O)c3ccc4c(c3)N(C[C@@H]3CCN32)C[C@@]2(CCCc3cc(Cl)ccc32)CO4)no1 [Compound 24]	234 nM	0.63 nM	0.47 nM	
C[C@@H]1[C@@H](C)C/C=C(\F)[C@H](COCC(=O)N2CCOCC2)N2CC[C@H]2CN2C[C@@]3(CCCc4cc(Cl)ccc43)COc3ccc(cc32)C(=O)NS1(=O)=O [Compound 18]	448 nM	0.24 nM	0.24 nM	
C[C@@H]1[C@@H](C)C/C=C(\F)[C@H](COc2ccccn2)N2CC[C@H]2CN2C[C@@]3(CCCc4cc(Cl)ccc43)COc3ccc(cc32)C(=O)NS1(=O)=O [Compound 11]	1490 nM	3.97 nM	2.13 nM	
CC(C)COC[C@H]1/C(F)=C/C[C@H](C)[C@@H](C)S(=O)(=O)NC(=O)c2ccc3c(c2)N(C[C@@H]2CCN21)C[C@@]1(CCCc2cc(Cl)ccc21)CO3 [Compound 15]	1860 nM	3.64 nM	2.33 nM	
C[C@@H]1[C@@H](C)C/C=C(\F)[C@H](COCCC2CCOCC2)N2CC[C@H]2CN2C[C@@]3(CCCc4cc(Cl)ccc43)COc3ccc(cc32)C(=O)NS1(=O)=O [Compound 23]	545 nM	1.52 nM	0.82 nM	
COCC1/C=C/C[C@H](C)[C@@H](C)S(=O)(=O)NC(=O)c2ccc3c(c2)N(C[C@@H]2CCCN12)C[C@@]1(CCCc2cc(Cl)ccc21)CO3 (single isomer, unassigned) [Compound 8]	1330 nM	2.04 nM	2.64 nM	
COC[C@H]1/C(F)=C/C[C@H](C)[C@@H](C)S(=O)(=O)NC(=O)c2ccc3c(c2)N(C[C@@H]2CCN21)C[C@@]1(CCCc2cc(Cl)ccc21)CO3 [Compound 13]	181 nM	0.49 nM	0.51 nM	
C[C@@H]1[C@@H](C)C/C=C(\F)[C@H](COCC2CCC2)N2CC[C@H]2CN2C[C@@]3(CCCc4cc(Cl)ccc43)COc3ccc(cc32)C(=O)NS1(=O)=O [Compound 26]	2520 nM	4.72 nM	2.87 nM	
C[C@@H]1[C@@H](C)C/C=C/C(CO)N2CC[C@H]2CN2C[C@@]3(CCCc4cc(Cl)ccc43)COc3ccc(cc32)C(=O)NS1(=O)=O (single isomer, unassigned) [Compound 10]	1490 nM	2.65 nM		
C[C@@H]1[C@@H](C)C/C=C(\F)[C@H](COCCCN2CCOCC2)N2CC[C@H]2CN2C[C@@]3(CCCc4cc(Cl)ccc43)COc3ccc(cc32)C(=O)NS1(=O)=O [Compound 25]	231 nM	0.2 nM	0.21 nM	
C[C@@H]1[C@@H](C)C/C=C(\F)[C@H](CO)N2CC[C@H]2CN2C[C@@]3(CCCc4cc(Cl)ccc43)COc3ccc(cc32)C(=O)NS1(=O)=O [Compound 9]	144 nM	0.22 nM	0.23 nM	
C[C@@H]1[C@@H](C)C/C=C(\F)[C@H](COCC(=O)O)N2CC[C@H]2CN2C[C@@]3(CCCc4cc(Cl)ccc43)COc3ccc(cc32)C(=O)NS1(=O)=O [Compound 17]	5990 nM	0.13 nM	0.17 nM	
C[C@@H]1[C@@H](C)C/C=C(\F)[C@H](COCC(=O)N2CC(F)(F)C2)N2CC[C@H]2CN2C[C@@]3(CCCc4cc(Cl)ccc43)COc3ccc(cc32)C(=O)NS1(=O)=O [Compound 19]	302 nM	0.43 nM	0.36 nM	
